From ChEMBL document CHEMBL2203012, “Anti-infective and herbicidal activity of N-substituted 2-aminobenzothiazoles” (Bioorg Med Chem, 2012) come the findings set out here.

Structures are written as SMILES.

As a reminder, the logP is the decadic logarithm of the partition coefficient of the neutral form, usually between octanol and water. Read a high logP as a more lipophilic compound. As a reminder, the IC80 is the point of the concentration-response curve where the effect stands at 80%. A word on the IC90: it is the concentration needed for an effect of 90%. In general, IC50 refers to the concentration that inhibits the measured activity by half.

A short description of data set [1]: Octanol-water partition coefficient, log P of the compound. Type of data set: physicochemical.
A short description of data set [2]: (§1) Cytotoxicity against human THP1 cells assessed as cell death after 24 hrs by LDH assay. To be noted: THP-1 cells, read-out: LD50. In kind it is cell-based, THP-1.
Data set [3] relates to Staphylococcus epidermidis. Kind of data set: Antibacterial activity against Staphylococcus epidermidis H 6996/08 assessed as growth inhibition after 48 hrs by broth microdilution test. Type of data set: functional. The note with it: H 6996/08, 48 h.
The subject of data set [4] is Mycobacterium kansasii. Kind of data set: Antimycobacterial activity against log-phase Mycobacterium kansasii CIT11/06 assessed as growth inhibition after 5 days by alamar blue assay. The note with it: CIT11/06, 120 h. Type of data set: functional. For orientation: The colour change of resazurin is a common sign of viable cells or microbes.
Data set [5] deals with Staphylococcus epidermidis. Kind of data set: Antibacterial activity against Staphylococcus epidermidis H 6996/08 assessed as growth inhibition after 24 hrs by broth microdilution test. To be noted: H 6996/08, 24 h. In kind it is functional. (In general: Dilution methods test growth across graded concentrations, often in twofold steps.)
The subject of data set [6] is Staphylococcus aureus. Kind of data set: Antibacterial activity against methicillin-resistant Staphylococcus aureus H 5996/08 assessed as growth inhibition after 48 hrs by broth microdilution test. Type of data set: functional. To be noted: H 5996/08, 48 h.
For data set [7], the system named is Staphylococcus aureus. Kind of data set: Antibacterial activity against methicillin-resistant Staphylococcus aureus H 5996/08 assessed as growth inhibition after 24 hrs by broth microdilution test. In kind it is functional. The note with it: H 5996/08, 24 h.
In data set [8] the test system is Trichophyton mentagrophytes. Kind of data set: Antifungal activity against Trichophyton mentagrophytes 445 assessed as growth inhibition after 120 hrs by CLSI M38-A broth microdilution method. In kind it is functional, organism-based. The note with it: Trichophyton mentagrophytes, 445, 120 h.
Data set [9] has as its system Trichophyton mentagrophytes. Kind of data set: Antifungal activity against Trichophyton mentagrophytes 445 assessed as growth inhibition after 72 hrs by CLSI M38-A broth microdilution method. In kind it is functional, organism-based. To be noted: Trichophyton mentagrophytes, 445, 72 h.
Data set [10] has as its system Trichosporon asahii. Kind of data set: Antifungal activity against Trichosporon asahii 1188 assessed as growth inhibition after 48 hrs by CLSI M27-A2 broth microdilution method. In kind it is functional. To be noted: Trichosporon asahii, 1188, 48 h.
Data set [11] deals with Trichosporon asahii. Kind of data set: Antifungal activity against Trichosporon asahii 1188 assessed as growth inhibition after 24 hrs by CLSI M27-A2 broth microdilution method. Type of data set: functional. The note with it: Trichosporon asahii, 1188, 24 h.
In data set [12] the test system is Pichia kudriavzevii. Kind of data set: Antifungal activity against Candida krusei E28 assessed as growth inhibition after 48 hrs by CLSI M27-A2 broth microdilution method. Type of data set: functional. The note with it: E28, 48 h.
Data set [13] deals with Pichia kudriavzevii. Kind of data set: Antifungal activity against Candida krusei E28 assessed as growth inhibition after 24 hrs by CLSI M27-A2 broth microdilution method. Type of data set: functional. The note with it: E28, 24 h.
For data set [14], the system named is Candida albicans. Kind of data set: Antifungal activity against Candida albicans ATCC 44859 assessed as growth inhibition after 48 hrs by CLSI M27-A2 broth microdilution method. Type of data set: functional. To be noted: ATCC 44859, 48 h.
Data set [15] deals with Candida albicans. Kind of data set: Antifungal activity against Candida albicans ATCC 44859 assessed as growth inhibition after 24 hrs by CLSI M27-A2 broth microdilution method. In kind it is functional. The note with it: ATCC 44859, 24 h.
The nature of data set [16]: Lipophilicity, log K of the compound in methanol-water mixture by RP-HPLC. In kind it is physicochemical.
The test system of data set [17] is THP-1. Described as §1. Type of data set: cell-based. The note with it: thp-1, 24 h.

As to `O=C(Cc1ccccc1)Nc1nc2ccccc2s1`, the lipophilicity (logP) in data set [1] was 3.98. Further, the CC50 at 24 h in [2] is above 30 µM. Also, the IC80 in [3] came out at 500 µM; in data set [5], 125 µM; in [7], 31.2 µM; in data set [10], 62.2 µM; in data set [11], 31.2 µM; in [12], 125 µM. Moreover, the IC80 is 62.5 µM in [13], 7.81 µM in data set [14] and 3.9 µM in data set [15]. Besides, the 90% effect concentration (IC90) in data set [4] amounted to 256 µM; in [6], 62.2 µM. Moreover, the concentration for half-maximal inhibition (IC50) in [8] was determined as 125 µM; in data set [9], 15.6 µM. Further, the “log K” value in data set [16] stood at 0.5413.

As for `O=C(Nc1nc2ccccc2s1)c1ccccc1`, the logP in data set [1] was determined as 4.04. Besides, the CC50 at 24 h in [2] is above 30 µM. In addition, the 80% effect concentration (IC80) was above 500 µM in data set [3]; above 500 µM in [5]; 125 µM in data set [7]; above 500 µM in data set [10]; 250 µM in data set [11]; above 500 µM in data set [12]. In addition, the 80% effect concentration (IC80) is 500 µM in data set [13], 125 µM in data set [14] and 125 µM in [15]. The IC90 in data set [4] is 533 µM; in [6] it was 500 µM. Moreover, the values for the IC50 in [8] and in data set [9] were 125 µM and 62.2 µM, respectively. The “log K” value in [16] was 0.6643.

In turn, `CNc1nc2ccccc2s1` came in with a lipophilicity (logP) in [1] of 2.73. Besides, the IC80 in data set [3] was 125 µM; in data set [5] it was 125 µM; in [7], 500 µM; in data set [10], above 500 µM; in [11], 125 µM; in data set [12], above 500 µM. In addition, the results for the IC80 in data set [13], in data set [14] and in data set [15] were 500 µM, 250 µM and 125 µM, respectively. Further, the IC90 in [4] was above 1830 µM; in [6] it was 500 µM. Also, the 50% inhibitory concentration (IC50) in data set [8] and in data set [9] was 62.5 µM each time. The “log K” value in data set [16] is 0.3819.

`CC(=O)Nc1nc2ccccc2s1` showed a logP in data set [1] of 2.14. For the same molecule, the CC50 at 24 h in data set [2] was above 30 µM. Besides, the 80% effect concentration (IC80) is above 500 µM in data set [3]; 250 µM in data set [5]; 250 µM in data set [7]; above 500 µM in data set [10]; 250 µM in data set [11]; above 500 µM in data set [12]. Further, the IC80 in data set [13] stood at 250 µM; in data set [14], 125 µM; in data set [15], 62.5 µM. The IC90 in data set [4] came to 1300 µM; in data set [6] it was 500 µM. For the same molecule, the IC50 in data set [8] and in data set [9] was 250 µM each time. Also, the “log K” value in data set [16] amounted to 0.3661.

In data set [1], `CCCCC(=O)Nc1nc2ccccc2s1` came in with a logP of 3.63. Moreover, the CC50 at 24 h in [2] is above 30 µM. Further, the IC80 in data set [3] was 62.5 µM; in data set [5], 31.2 µM; in [7] it was 31.2 µM; in data set [10], above 125 µM; in [11], 62.5 µM; in [12], above 125 µM. The IC80 was 125 µM in data set [13], 31.2 µM in data set [14] and 31.2 µM in data set [15]. The values for the IC90 in data set [4] and in data set [6] were 1090 µM and 125 µM, respectively. The half-inhibitory concentration (IC50) in data set [8] was determined as 62.5 µM; in [9] it was 31.2 µM. Further, in [16], the “log K” value was found to be 0.578.

In the case of `CC(C)CC(=O)Nc1nc2ccccc2s1`, in data set [1], the logP was found to be 3.54. Besides, the CC50 at 24 h in data set [2] was above 30 µM. For the same molecule, the IC80 was above 125 µM in [3]; above 125 µM in [5]; 125 µM in [7]; above 125 µM in data set [10]; 125 µM in data set [11]; above 125 µM in [12]. Also, the IC80 in [13] is above 125 µM; in [14], 125 µM; in [15], 125 µM. Also, the 90% effect concentration (IC90) came to 480 µM in data set [4] and 125 µM in data set [6]. Moreover, the IC50 in data set [8] and in data set [9] was 62.5 µM in each case. Besides, in data set [16], the “log K” value turned out to be 0.5598.

`CC(C)(C)C(=O)Nc1nc2ccccc2s1` returned a log partition coefficient (logP) in [1] of 4.07. For the same molecule, the LD50 result in data set [17] is “ND(Insoluble)”. Also, the IC80 in [3] was 500 µM; in data set [5] it was 125 µM; in [7] it was 250 µM; in data set [10], above 500 µM; in [11], above 500 µM; in data set [12], above 500 µM. Besides, the IC80 in data set [13] is 500 µM; in data set [14], 250 µM; in data set [15] it was 62.5 µM. Besides, the concentration for an effect of 90% (IC90) was 1040 µM in data set [4] and 500 µM in [6]. For the same molecule, the half-maximal inhibitory concentration (IC50) in data set [8] was found to be 250 µM; in data set [9], 62.5 µM. Also, the “log K” value in data set [16] was 0.5891.

Regarding `O=C(Nc1nc2ccccc2s1)C1CCCCC1`, the logP in data set [1] is 4.11. Also, the CC50 at 24 h in data set [2] is above 30 µM. Also, the IC80 in [3] was above 125 µM; in [5], above 125 µM; in [7], above 125 µM; in data set [10] it was above 125 µM; in [11] it was 125 µM; in data set [12] it was above 125 µM. Moreover, the 80% effect concentration (IC80) in [13], in [14] and in data set [15] was above 125 µM throughout. Moreover, the 90% effect concentration (IC90) in [4] is 960 µM; in data set [6], above 125 µM. Also, the 50% inhibitory concentration (IC50) in data set [8] and in data set [9] was above 125 µM in each case. Besides, in data set [16], the “log K” value was found to be 0.688.

As to `COC(=O)Nc1nc2ccccc2s1`, in data set [1], the logP was found to be 2.72. For the same molecule, the CC50 at 24 h in [2] amounted to 27.5 µM. For the same molecule, the IC80 in data set [3] is 500 µM; in data set [5] it was 125 µM; in data set [7] it was 250 µM; in data set [10], 500 µM; in [11], 250 µM; in [12] it was above 250 µM. The concentration for an effect of 80% (IC80) in data set [13] is above 250 µM; in data set [14], 250 µM; in [15], 125 µM. The IC90 in data set [4] was found to be 533 µM; in data set [6], 250 µM. Besides, the concentration for half-maximal inhibition (IC50) in data set [8] and in data set [9] was 125 µM in each case. Besides, in [16], the “log K” value is 0.4251.

Regarding `c1ccc(CNc2nc3ccccc3s2)cc1`, in [1], the log partition coefficient (logP) is 4.46. Moreover, the IC80 is above 125 µM in data set [3]; above 125 µM in data set [5]; above 125 µM in data set [7]; above 125 µM in [10]; 125 µM in data set [11]; above 125 µM in [12]. In addition, the IC80 in data set [13], in [14] and in data set [15] was above 125 µM each time. In data set [6], the 90% effect concentration (IC90) was above 125 µM. Further, the half-maximal inhibitory concentration (IC50) in data set [8] and in data set [9] was above 125 µM throughout. Besides, the “log K” value in [16] is given as 0.6012.

For the molecule `OC(Cn1cncn1)(Cn1cncn1)c1ccc(F)cc1F` [FLUCONAZOLE], the 50% inhibitory concentration (IC50) was 3.91 µM in data set [8] and 1.95 µM in [9]. Besides, the 80% effect concentration (IC80) in data set [10] was determined as 0.48 µM; in [11] it was 0.24 µM; in data set [12], 15.6 µM; in [13], 3.91 µM; in data set [14] it was 0.12 µM; in data set [15], 0.06 µM.

In the case of `NNC(=O)c1ccncc1` [ISONIAZID], the 90% effect concentration (IC90) in [4] was below 729 µM.

Take `CC1(C)S[C@@H]2[C@H](NC(=O)COc3ccccc3)C(=O)N2[C@H]1C(=O)O` [PENICILLIN V]: the results for the IC80 in data set [3], in data set [5] and in data set [7] were 250 µM, 62.5 µM and 250 µM, respectively. Further, the IC90 in data set [6] is 500 µM.

Consider `NC(=O)c1cnccn1` [PYRAZINAMIDE], for which the IC90 in data set [4] was above 812 µM.
